*1 amine or outer side, *2 acyl side, *3 side chain or, on linkers, in order; H or OH if unused. Where a SMILES comes first, the peptide text is derived from it. Bridges are numbered along the chain shown (N, C = ends). [ ]: non-standard residue; d: D form. The star is where a group is joined. Ala(1-bicyclo(1.1.1)pentyl) = N[C@@H](CC12CC(C1)C2)C(=O)O; Phe(4-guanidino) = N=C(N)Nc1ccc(C[C@H](N)C(=O)O)cc1; Ala(pyrimidin-5-yl) = N[C@@H](Cc1cncnc1)C(=O)O; NMe3Pal(6-Me) = CN[C@@H](Cc1ccc(C)nc1)C(=O)O; X6 = O=C([C@H](Cc1cnn(C2COC2)c1)N[*:1])[*:2]; NMe3Pal(5-F) = CN[C@@H](Cc1cncc(F)c1)C(=O)O; X3 = CN([C@@H](Cc1cncnc1)C(=O)[*:2])[*:1]; X24 = O=C([C@H](Cc1ccncc1Cl)N[*:1])[*:2]; X11 = CC(C)(F)CC[C@H](N[*:1])C(=O)[*:2]; NMeAha = CN[C@@H](CCN=[N+]=[N-])C(=O)O; Nle(5,5-F2) = CC(F)(F)CC[C@H](N)C(=O)O; Phe(3-F) = N[C@@H](Cc1cccc(F)c1)C(=O)O; Phe(2-F) = N[C@@H](Cc1ccccc1F)C(=O)O; X31 = O=C([C@H](CCC1CC1)N[*:1])[*:2]; NMe3Pal = CN[C@@H](Cc1cccnc1)C(=O)O; X1 = O=C(C12CC(CN[*:1])(C1)C2)[*:2]; X12 = CC(=O)NCCCN(CC(=O)[*:2])[*:1]; X38 = NC(=O)CCCN(CC(=O)[*:2])[*:1]; Aha = [N-]=[N+]=NCC[C@H](N)C(=O)O; Ala(cPr) = N[C@@H](CC1CC1)C(=O)O; NMeF = CN[C@@H](Cc1ccccc1)C(=O)O; PhLac = O=C(O)[C@@H](O)Cc1ccccc1; X4 = O=C([C@H](CCCF)N[*:1])[*:2]; 3Pal = N[C@@H](Cc1cccnc1)C(=O)O; Ahp(2) = CCCCC[C@H](N)C(=O)O; Cba = N[C@@H](CC1CCC1)C(=O)O; NMeNle = CCCC[C@H](NC)C(=O)O; hLeu = CC(C)CC[C@H](N)C(=O)O; αMeC = C[C@](N)(CS)C(=O)O; NMeA = CN[C@@H](C)C(=O)O; Nle = CCCC[C@H](N)C(=O)O; Pyrrolidide = C1CCN(*)C1 Bounds are passed on as bounds.

EC50 data for 20 compounds are collected here from patent publication US20260001914A1, “MACROCYCLIC PEPTIDES TARGETING KRAS” (Merck Sharp & Dohme LLC, priority 2022, published 2026).

For the test, the target named is phosphorylation levels of ERK1/2 in AsPC-1 (homozygous KRAS-G12D) cells (Homo sapiens, UniProt P01116, G12D). The test can be described thus: Cellular phospho-ERK assay in AsPC-1 cells (Alpha Screen), assay medium without fetal bovine serum.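 Also: signal taken as phospho-ERK over total ERK per well, both detected in one multiplex bead assay, EC50 from four-parameter logistic fit of dose-response curves.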 It counts as cell-based. Conditions: phospho-ERK AlphaScreen, 18 h.
Sequence of phosphorylation levels of ERK1/2 in AsPC-1 (homozygous KRAS-G12D) cells (P01116 1-186 G12D): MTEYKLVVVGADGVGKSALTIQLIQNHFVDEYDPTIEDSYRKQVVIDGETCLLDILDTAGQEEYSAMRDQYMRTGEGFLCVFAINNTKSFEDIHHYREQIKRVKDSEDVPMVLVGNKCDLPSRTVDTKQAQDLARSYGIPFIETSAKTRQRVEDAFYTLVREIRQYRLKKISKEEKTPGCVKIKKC
`C[C@H]1C(=O)N[C@@H](Cc2cccnc2)C(=O)N[C@@H](CC2CC2)C(=O)N[C@@H](Cc2ccccc2F)C(=O)N[C@@H](CCC(C)(F)F)C(=O)N(C)[C@@H](Cc2ccccc2)C(=O)NCC23CC(C2)(C3)C(=O)O[C@@H](Cc2ccccc2)C(=O)N1C` [compound 289, cyclo(FLac-NMeA-3Pal-cPrA-Phe2F-Nle3F2-NMeF-amBCP)] (cyclo([3Pal][Ala(cPr)][Phe(2-F)][Nle(5,5-F2)][NMeF][X1][PhLac][NMeA])) registered an EC50 of 1.07 µM.
`CC(C)CC[C@@H]1NC(=O)[C@H](Cc2ccccc2F)NC(=O)[C@H](CC2CC2)NC(=O)[C@H](Cc2cncnc2)NC(=O)[C@H](C)N(C)C(=O)[C@H](Cc2ccccc2)OC(=O)C23CC(CNC(=O)[C@H](Cc4cncc(F)c4)N(C)C1=O)(C2)C3` [compound 282, cyclo(FLac-NMeA-PyrimAla-cPrA-Phe2F-hL-NMe3Pal5F-amBCP)] (cyclo([Ala(cPr)][Phe(2-F)][hLeu][NMe3Pal(5-F)][X1][PhLac][NMeA][Ala(pyrimidin-5-yl)])): the EC50 is 2.49 µM.
Consider `CCCC[C@@H]1NC(=O)[C@H](Cc2cncnc2)NC(=O)[C@H](CCN=[N+]=[N-])N(C)C(=O)[C@H](Cc2ccccc2)OC(=O)C23CC(CNC(=O)[C@H](Cc4cccnc4)N(C)C(=O)[C@H](CCCC)NC(=O)[C@H](Cc4ccccc4F)NC1=O)(C2)C3` [compound 242, cyclo(FLac-NMeDabN3-PyrimAla-Nle-Phe2F-Nle-NMe3Pal-amBCP)] (cyclo([NMe3Pal][X1][PhLac][NMeAha][Ala(pyrimidin-5-yl)][Nle][Phe(2-F)][Nle])), for which a half-maximal response (EC50) required 11.6 µM.
`CCCC[C@@H]1NC(=O)[C@H](Cc2cccnc2)NC(=O)[C@H](C)N(C)C(=O)[C@H](Cc2ccccc2)OC(=O)C23CC(CNC(=O)[C@H](Cc4ccc(C)nc4)N(C)C(=O)[C@H](CCCC)NC(=O)[C@H](Cc4ccccc4F)NC1=O)(C2)C3` [compound 402, cyclo(FLac-NMeA-3Pal-Nle-Phe2F-Nle-NMe3Pal4Me-amBCP)] (cyclo([3Pal][Nle][Phe(2-F)][Nle][NMe3Pal(6-Me)][X1][PhLac][NMeA])) showed a concentration for a half-maximal effect (EC50) of 9.95 µM.
The compound `C[C@H]1C(=O)N[C@@H](Cc2cncnc2)C(=O)N[C@@H](CC2CCC2)C(=O)N[C@@H](Cc2ccccc2F)C(=O)N[C@@H](CCC2CC2)C(=O)N(C)[C@@H](Cc2ccccc2)C(=O)NCC23CC(C2)(C3)C(=O)O[C@@H](Cc2ccccc2)C(=O)N1C` [compound 115, cyclo(FLac-NMeA-PyrimAla-cBuA-Phe2F-hcPrA-NMeF-amBCP)] (cyclo([Cba][Phe(2-F)][X31][NMeF][X1][PhLac][NMeA][Ala(pyrimidin-5-yl)])) registered an EC50 of 0.437 µM.
`CCCCC[C@@H]1NC(=O)[C@H](Cc2ccc(OC)cc2)NC(=O)[C@H](CC2CCC2)NC(=O)[C@H](Cc2ccoc2)NC(=O)[C@H](CCCNC(=N)N)NC(=O)[C@H](Cc2ccccc2)NC(=O)CSC[C@@](C)(C(N)=O)NC(=O)[C@H](Cc2ccccc2)N(C)C1=O` [compound 371, cyclo(F-R-Ala3Fur-cBuA-TyrOMe-Ahp-NMeF-aMeCl-ClAc)] registered a 50% effective concentration (EC50) of over 50.8 µM.
Consider `CCCCC[C@@H]1NC(=O)[C@H](Cc2ccc(OC)cc2)NC(=O)[C@H](CC2CCC2)NC(=O)[C@H](Cc2ccc(N3CCC[C@@H]3CN)cc2)NC(=O)[C@H](CCCNC(=N)N)NC(=O)[C@H](Cc2ccccc2)NC(=O)CSC[C@@](C)(C(N)=O)NC(=O)[C@H](Cc2ccccc2)N(C)C1=O` [compound 391, cyclo(F-R~Phe4RamPyrr-cBuA-TyrOMe-Abp-NMeF-aMeCl-ClAc)], for which the EC50 is over 50.8 µM.
In turn, `CCCC[C@@H]1NC(=O)[C@H](Cc2ccccc2F)NC(=O)[C@H](CCN=[N+]=[N-])NC(=O)[C@H](Cc2cccnc2)NC(=O)[C@H](CCCC)N(C)C(=O)[C@H](Cc2ccccc2)OC(=O)C23CC(CNC(=O)[C@H](Cc4cccnc4)N(C)C1=O)(C2)C3` [compound 243, cyclo(FLac-NMeNle-3Pal-DabN3-Phe2F-Nle-NMe3Pal-amBCP)] (cyclo([3Pal][Aha][Phe(2-F)][Nle][NMe3Pal][X1][PhLac][NMeNle])) returned an EC50 of 21.7 µM.
The result for `CCCCC[C@@H]1NC(=O)[C@H](CC(=O)N2CCCC2)NC(=O)[C@H](CC2CCC2)NC(=O)[C@H](Cc2cccnc2)NC(=O)[C@H](CCCNC(=N)N)NC(=O)[C@H](Cc2ccccc2)NC(=O)CSC[C@@](C)(C(N)=O)NC(=O)[C@H](Cc2ccccc2)N(C)C1=O` [compound 373, cyclo(F-R~3Pal-cBuA-PyD-Ahp-NMeF-aMeCl-ClAc)] ({CH2CO}-FR[3Pal][Cba]D(Pyrrolidide)[Ahp(2)][NMeF][αMeC]-NH2; thioether N-8) reads over 50.8 µM; that for `CCCC[C@@H]1NC(=O)[C@H](Cc2ccccc2)NC(=O)[C@H](C)N(C)C(=O)[C@H](Cc2ccccc2)OC(=O)C23CC(CNC(=O)[C@H](Cc4ccccc4)N(C)C(=O)[C@H](CCCC)NC(=O)[C@H](Cc4ccccc4F)NC1=O)(C2)C3` [compound 305, cyclo(FLac-NMeA-F-Nle-Phe2F-Nle-NMeF-amBCP)] (cyclo(F[Nle][Phe(2-F)][Nle][NMeF][X1][PhLac][NMeA])), over 50.8 µM.
Then `CC(C)CC[C@@H]1NC(=O)[C@H](Cc2ccccc2F)NC(=O)[C@H](CCCF)NC(=O)[C@H](Cc2cncnc2)NC(=O)[C@H](C)N(C)C(=O)[C@H](Cc2ccccc2)OC(=O)C23CC(CNC(=O)[C@H](Cc4ccccc4)N(C)C1=O)(C2)C3` [compound 133, cyclo(FLac-NMeA-PyrimAla-NvaF-Phe2F-hL-NMeF-amBCP)] (cyclo([NMeA][Ala(pyrimidin-5-yl)][X4][Phe(2-F)][hLeu][NMeF][X1][PhLac])), with 2.26 µM.
Then `CCCC[C@@H]1NC(=O)[C@H](Cc2ccccc2F)NC(=O)[C@H](CC(C)C)NC(=O)[C@H](Cc2cncnc2)NC(=O)[C@H](C)N(C)C(=O)[C@H](Cc2ccccc2)OC(=O)C23CC(CNC(=O)[C@H](Cc4cccnc4)N(C)C1=O)(C2)C3` [compound 129, cyclo(FLac-NMeA-PyrimAla-L-Phe2F-Nle-NMe3Pal-amBCP)] (cyclo([PhLac][NMeA][Ala(pyrimidin-5-yl)]L[Phe(2-F)][Nle][NMe3Pal][X1])), with over 50.8 µM.
Take `CC(C)CC[C@@H]1NC(=O)[C@H](Cc2ccccc2F)NC(=O)[C@H](CC23CC(C2)C3)NC(=O)[C@H](Cc2cncnc2)NC(=O)[C@H](C)N(C)C(=O)[C@H](Cc2ccccc2)OC(=O)C23CC(CNC(=O)[C@H](Cc4ccccc4)N(C)C1=O)(C2)C3` [compound 272, cyclo(FLac-NMeA-PyrimAla-AlaPent-Phe2F-hL-NMeF-amBCP)] (cyclo([NMeA][Ala(pyrimidin-5-yl)][Ala(1-bicyclo(1.1.1)pentyl)][Phe(2-F)][hLeu][NMeF][X1][PhLac])): the EC50 worked out at 2.95 µM.
The result for `CC(C)CC[C@@H]1NC(=O)[C@H](Cc2cccc(F)c2)NC(=O)[C@H](CC2CCC2)NC(=O)[C@H](Cc2cncnc2)NC(=O)[C@H](C)N(C)C(=O)[C@H](Cc2ccccc2)OC(=O)C23CC(CNC(=O)[C@H](Cc4ccccc4)N(C)C1=O)(C2)C3` [compound 303, cyclo(FLac-NMeA-PyrimAla-cBuA-Phe3F-hL-NMeF-amBCP)] (cyclo([Cba][Phe(3-F)][hLeu][NMeF][X1][PhLac][NMeA][Ala(pyrimidin-5-yl)])) reads 0.806 µM; that for `CC(C)CC[C@@H]1NC(=O)[C@H](Cc2cnn(C3COC3)c2)NC(=O)[C@H](CC2CC2)NC(=O)[C@H](Cc2cncnc2)NC(=O)[C@H](C)N(C)C(=O)[C@H](Cc2ccccc2)OC(=O)C23CC(CNC(=O)[C@H](Cc4ccccc4)N(C)C1=O)(C2)C3` [compound 300, cyclo(FLac-NMeA-PyrimAla-cPrA-AlaPyz1Ox-hL-NMeF-amBCP)] (cyclo([Ala(cPr)][X6][hLeu][NMeF][X1][PhLac][NMeA][Ala(pyrimidin-5-yl)])), over 50.8 µM.
As to `CCCCC[C@@H]1NC(=O)[C@H](Cc2ccc(OC)cc2)NC(=O)[C@H](CC2CCC2)NC(=O)[C@H](Cc2ccc(NC(=N)N)cc2)NC(=O)CN(CCCNC(C)=O)C(=O)[C@H](Cc2ccccc2)NC(=O)CSC[C@@](C)(C(N)=O)NC(=O)[C@H](Cc2ccccc2)N(C)C1=O` [compound 387, cyclo(F-AcApG-Phe4Gn-cBuA-TyrOMe-Ahp-NMcF-aMeCl-ClAc)] ({CH2CO}-F[X12][Phe(4-guanidino)][Cba]Y(Me)[Ahp(2)][NMeF][αMeC]-NH2; thioether N-8), the EC50 is over 50.8 µM.
Compound `CCCCC[C@@H]1NC(=O)[C@H](Cc2ccc(OC)cc2)NC(=O)[C@H](CC2CCC2)NC(=O)[C@H](Cc2ccc(NC(=N)N)cc2)NC(=O)CN(CCCC(N)=O)C(=O)[C@H](Cc2ccccc2)NC(=O)CSC[C@@](C)(C(N)=O)NC(=O)[C@H](Cc2ccccc2)N(C)C1=O` [compound 386, cyclo(F-Cmpg-Phe4Gn-cBuA-TyrOMe-Abp-NMeF-aMeCl-ClAc)] ({CH2CO}-F[X38][Phe(4-guanidino)][Cba]Y(Me)[Ahp(2)][NMeF][αMeC]-NH2; thioether N-8) showed an EC50 of over 50.8 µM.
Turning to `C[C@H]1C(=O)N[C@@H](Cc2cncnc2)C(=O)N[C@@H](CC2CC2)C(=O)N[C@@H](Cc2ccncc2Cl)C(=O)N[C@@H](CCC(C)(C)F)C(=O)N(C)[C@@H](Cc2ccccc2)C(=O)NCC23CC(C2)(C3)C(=O)O[C@@H](Cc2ccccc2)C(=O)N1C` [compound 299, cyclo(FLac-NMeA-PyrimAla-cPrA-4Pal2Cl-hL3F-NMeF-amBCP)] (cyclo([Ala(cPr)][X24][X11][NMeF][X1][PhLac][NMeA][Ala(pyrimidin-5-yl)])), the EC50 is over 50.8 µM.
Compound `CCCCC[C@@H]1NC(=O)[C@H](Cc2ccc(OC)cc2)NC(=O)[C@H](CC2CCC2)NC(=O)[C@H](Cc2cncnc2)NC(=O)[C@H](CCCNC(=N)N)NC(=O)[C@H](Cc2ccccc2)NC(=O)CSC[C@@](C)(C(N)=O)NC(=O)[C@H](Cc2ccccc2)N(C)C1=O` [compound 367, cyclo(F-R-PyrimAla-cBuA-TyrOMe-Ahp-NMeF-aMeCl-ClAc)] ({CH2CO}-FR[Ala(pyrimidin-5-yl)][Cba]Y(Me)[Ahp(2)][NMeF][αMeC]-NH2; thioether N-8) came in with an EC50 of over 50.8 µM.
`CCCCC[C@@H]1NC(=O)[C@H](Cc2ccc(OC)cc2)NC(=O)[C@H](CC2CCC2)NC(=O)[C@H](Cc2cccnc2)NC(=O)[C@H](CCCNC(=N)N)NC(=O)[C@H](Cc2ccccc2)NC(=O)CSC[C@@](C)(C(N)=O)NC(=O)[C@H](Cc2cncnc2)N(C)C1=O` [compound 376, cyclo(F-R-3Pal-cBuA-TyrOMe-Ahp-NMeAlaPyrim-aMeCl-ClAc)] ({CH2CO}-FR[3Pal][Cba]Y(Me)[Ahp(2)][X3][αMeC]-NH2; thioether N-8) yielded an EC50 of over 50.8 µM.
